The values that follow come from ChEMBL document CHEMBL5150047, “Novel bioactive hybrid Celecoxib-HDAC Inhibitor, induces apoptosis in human acute lymphoblastic leukemia cells” (Bioorg Med Chem, 2022).

Molecules are shown by their SMILES. Calls of active or inactive are those of the source. The rule behind the calls is not given here.

In one data set the test system is HL-60. Kind of data set: Antiproliferative activity against human HL-60 cells assessed as reduction in cell viability incubated for 48 hrs by CCK8 assay. It counts as functional, cell-based. Conditions: HL-60, 48 h. (In general: Formazan colour is commonly taken as a measure of viable cells.)
The subject of another data set is Jurkat. Put plainly: Antiproliferative activity against human Jurkat cells assessed as reduction in cell viability incubated for 48 hrs by CCK8 assay. It counts as functional, cell-based.
Data set [1] concerns NALM-6. Put plainly: Antiproliferative activity against human NALM-6 cells assessed as reduction in cell viability incubated for 48 hrs by CCK8 assay. Particulars: NALM-6, 48 h. Type of data set: functional, cell-based.
The test system of another data set is K562. Put plainly: Antiproliferative activity against human K562 cells assessed as reduction in cell viability incubated for 48 hrs by CCK8 assay. Type of data set: functional, cell-based. Conditions: K562, 48 h.
The test system of data set [2] is HUVEC. Put plainly: Cytotoxicity against human HUVEC cells assessed as reduction in cell viability up to 50 uM by CCK8 assay. It counts as toxicity, cell-based.
In data set [3] the test system is NALM-6. Put plainly: Induction of apoptosis in human NALM-6 cells assessed as viable cells at 30 uM incubated for 48 hrs by AnnexinV-FITC/PI staining based flow cytometry (reference value: 97.98%). It counts as functional. Conditions: read-out: Activity. For orientation: In flow cytometry, cells or beads pass a laser one at a time.
Data set [4] relates to NALM-6. Put plainly: Antiproliferative activity against human NALM-6 cells assessed as reduction in cell viability incubated for 24 hrs by CCK8 assay. It counts as functional, cell-based.
Data set [5] deals with NALM-6. Put plainly: Induction of apoptosis in human NALM-6 cells assessed as necrotic cells at 10 uM incubated for 48 hrs by AnnexinV-FITC/PI staining based flow cytometry (reference value: 0.01%). It counts as functional.
The test system of data set [6] is HUVEC. Kind of data set: Cytotoxicity against human HUVEC cells assessed as reduction in cell viability by CCK8 assay. Type of data set: toxicity, cell-based.
A further data set has as its system MCF-10A. Put plainly: Cytotoxicity against human MCF-10A cells assessed as reduction in cell viability by CCK8 assay. Type of data set: toxicity, cell-based.
Data set [7] has as its system NALM-6. Kind of data set: Induction of apoptosis in human NALM-6 cells assessed as viable cells at 10 uM incubated for 48 hrs by AnnexinV-FITC/PI staining based flow cytometry (reference value: 97.98%). It counts as functional. Conditions: read-out: Activity.
Data set [8] relates to NALM-6. Put plainly: Downregulation of HDAC2 expression in human NALM-6 cells incubated for 48 hrs by western blot analysis. Conditions: dose 10-30 µM, DDE = dose-dependent effect. Type of data set: functional, cell-based. (In general: Immunoblotting shows a protein as a band on a membrane.)
The test system of data set [9] is NALM-6. Put plainly: Induction of apoptosis in human NALM-6 cells assessed as early apoptotic cells at 10 uM incubated for 48 hrs by AnnexinV-FITC/PI staining based flow cytometry (reference value: 1.09%). It counts as functional.
Data set [10] has as its system NALM-6. Kind of data set: Induction of apoptosis in human NALM-6 cells assessed as late apoptotic cells at 30 uM incubated for 48 hrs by AnnexinV-FITC/PI staining based flow cytometry (reference value: 0.92%). It counts as functional.
A further data set relates to L02. Kind of data set: Cytotoxicity against human L02 cells assessed as reduction in cell viability by CCK8 assay. It counts as toxicity, cell-based.
In data set [11] the test system is NALM-6. Kind of data set: Induction of apoptosis in human NALM-6 cells assessed as increase in cleaved PARP expression at 10 to 30 uM incubated for 48 hrs by western blot analysis. It counts as functional, cell-based. Conditions: dose 10-30 µM.
Data set [12] concerns NALM-6. Put plainly: Induction of apoptosis in human NALM-6 cells assessed as late apoptotic cells at 10 uM incubated for 48 hrs by AnnexinV-FITC/PI staining based flow cytometry (reference value: 0.92%). It counts as functional.
The test system of data set [13] is NALM-6. Put plainly: Induction of cell cycle arrest in human NALM-6 cells assessed as accumulation of cells at G2 phase at 30 uM incubated for 48 hrs by PI/RNase staining based flow cytometry. It counts as functional.
The subject of data set [14] is NALM-6. Kind of data set: Induction of apoptosis in human NALM-6 cells assessed as early apoptotic cells at 30 uM incubated for 48 hrs by AnnexinV-FITC/PI staining based flow cytometry (reference value: 1.09%). It counts as functional.
The target of the next data set is Histone deacetylase. Kind of data set: Inhibition of HDAC in human NALM-6 nuclear extract incubated for 48 hrs by fluorometric analysis. Type of data set: subcellular, Nucleus.
Data set [15] has as its system NALM-6. Kind of data set: Induction of cell cycle arrest in human NALM-6 cells assessed as reduction in proportion of cells at S phase at 30 uM incubated for 48 hrs by PI/RNase staining based flow cytometry. It counts as functional.
Data set [16] has as its system NALM-6. Kind of data set: Induction of apoptosis in human NALM-6 cells assessed as necrotic cells at 30 uM incubated for 48 hrs by AnnexinV-FITC/PI staining based flow cytometry (reference value: 0.01%). Type of data set: functional.
Data set [17] deals with NALM-6. Put plainly: Potency index, ratio of celecoxib IC50 to test compound IC50 for antiproliferative activity against human NALM-6 cells assessed as reduction in cell viability incubated for 48 hrs by CCK8 assay. It counts as functional.

For `Cc1ccc(-c2cc(C(F)(F)F)nn2-c2ccc(S(=O)(=O)NC(=O)C[Se]C#N)cc2)cc1`, the IC50 (as a rule, the point on the concentration scale where inhibition reaches its midpoint) in the data set on HL-60 was found to be 30 µM; with Jurkat it was 33.3 µM; in the data set with NALM-6 [1], 34.9 µM; with K562, 44.1 µM.
Take `Cc1ccc(-c2cc(C(F)(F)F)nn2-c2ccc(S(=O)(=O)NC(=O)CCC[Se]C#N)cc2)cc1`: the IC50 in the data set on HL-60, with Jurkat, in the data set with NALM-6 [1] and in the data set on K562 was > 100 µM each time.
Turning to `Cc1ccc(-c2cc(C(F)(F)F)nn2-c2ccc(S(N)(=O)=O)cc2)cc1` [CELECOXIB], the IC50 amounted to 44.7 µM in the data set with HL-60, 32.1 µM in the data set on Jurkat, 28.6 µM in the data set on NALM-6 [1] and 57.8 µM with K562. For the same molecule, in the data set with HUVEC [2], the Activity entry is given as “Non-Toxic”.
`Cc1ccc(-c2cc(C(F)(F)F)nn2-c2ccc(S(=O)(=O)NC(=O)CCCC[Se]C#N)cc2)cc1`: the IC50 in the data set with HL-60 was 59.8 µM; in the data set with Jurkat it was > 100 µM; in the data set with NALM-6 [1] it was > 100 µM; in the data set on K562, > 100 µM.
As for `Cc1ccc(-c2cc(C(F)(F)F)nn2-c2ccc(S(=O)(=O)NC(=O)CC[Se]C#N)cc2)cc1`, the IC50 was 62.5 µM in the data set on HL-60, > 100 µM in the data set with Jurkat, > 100 µM in the data set with NALM-6 [1] and > 100 µM in the data set on K562.
As to `Cc1ccc(-c2cc(C(F)(F)F)nn2-c2ccc(S(=O)(=O)NC(=O)CCCCC[Se]C#N)cc2)cc1`, the half-inhibitory concentration (IC50) with HL-60 was determined as 26.8 µM; in the data set with Jurkat, 12.6 µM; in the data set on NALM-6 [1] it was 9.95 µM; against Histone deacetylase it was 11.75 µM; with K562, 11.7 µM. The viability at 30 µM in the data set with NALM-6 [3] stood at 85.8%. Moreover, the outcome in the data set on NALM-6 [4], in the data set on NALM-6 [11], with NALM-6 [13] and with NALM-6 [15] was Active. Besides, the Activity is 0.09% in the data set on NALM-6 [5]; “Non-Toxic” in the data set on HUVEC [6]; “Non-Toxic” in the data set with MCF-10A; 1.53% with NALM-6 [9]; 4.17% in the data set on NALM-6 [10]; “Non-Toxic” in the data set on L02. The Activity in the data set on NALM-6 [12] came to 0.72%; with NALM-6 [14], 9.51%; in the data set on NALM-6 [16] it was 0.49%. Besides, in the data set on NALM-6 [7], the viability at 10 µM worked out at 97.7%. Also, the inhibition result in the data set on NALM-6 [8] was “Dde”. In addition, in the data set with NALM-6 [17], the “Ratio IC50” value was 2.8.
As for `O=C(CCCCCCC(=O)Nc1ccccc1)NO` [VORINOSTAT], the Activity entry with HUVEC [6], with MCF-10A and with L02 was “Toxic” each time.
